Measurements: ChEMBL document CHEMBL1148179, “Structural revisions of some non-adjacent bis-tetrahydrofuran annonaceous acetogenins” (1993)
In brackets after ≈: the same amount, converted by molar mass.

How the values were obtained:
Format in all cases: functional
[1] = system: A549; experiment: Cytotoxicity against human A549 cells
[2] = system: MCF7; experiment: Cytotoxicity against human MCF7 cells; settings: read-out: ED50 (the source's name)
[3] = system: HT-29; experiment: Cytotoxicity against human HT-29 cells; settings: read-out: ED50 (the source's name)

| Structure (SMILES) | ED50 [1] | EC50 [2] | EC50 [3] |
| --- | --- | --- | --- |
| CCCCCC[C@H](O)CCC[C@H](O)[C@H]1CC[C@H]([C@H]2CC(O)[C@H]([C@H](O)CCCCCCCCCCCCC3=C[C@H](C)OC3=O)O2)O1 (stereo partly specified) [ANNONIN XVI] | <1 ×10⁻⁸ ug/ml | 1.46 µg/mL (≈ 2.29 µM) | 1.42 µg/mL (≈ 2.22 µM) |
| COc1cccc2c1C(=O)c1c(O)c3c(c(O)c1C2=O)C[C@@](O)(C(=O)CO)C[C@@H]3O[C@H]1C[C@H](N)[C@H](O)[C@H](C)O1 [DOXORUBICIN] | 2.08 ×10⁻⁴ ug/ml | 0.0913 µg/mL (≈ 0.168 µM) | 0.0013 µg/mL (≈ 0.00239 µM) |
